Results reported in PMC8632988, “Inhibition of SYK and cSrc kinases can protect bone and cartilage in preclinical models of osteoarthritis and rheumatoid arthritis” (Scientific Reports, 2021).

Experiments:
[1] = system: mongrel rats, AIA model; assay: Adjuvant-induced arthritis in rats; type: in vivo; settings: for Animal death / The increase in the volume of the paws relative to the initial level: Diclofenac 8 mg/kg QD intragastric
Description: Rat adjuvant-induced arthritis (AIA) model was performed at Pharmenterprises, Russia as described previously^3 and approved by Ethics Committee of Pharmenterprises. Male 10 week old mongrel rats were divided into eleven groups: negative control (#1), positive control (#2) and nine treatment groups (#3–11), ten […] in each group. Group #1 was left intact, while subplantar injection of 0.1 mL of Complete Freund’s adjuvant (CFA, Sigma) was made on day 0 at right paws of rats in groups […]. […] Disease progression was monitored by measuring volumes of the right (involved) and left (non-involved) paws on days 0, 14, 18, 21, 25, and 28.

[2] = system: Sprague-Dowley rats, medial meniscal tear (MMT) model; assay: Surgically induced meniscal tear OA in rats; type: in vivo, rat; settings: 0.1 mg/kg subcutaneously once every three days, day 21
Description: Medial meniscal tear (MMT) model was performed at Pharmenterprises, Russia according to the published procedure[31] and approved by Ethics Committee of Pharmenterprises. Male 4-month old Sprague-Dowley rats were anesthetized with Zoletil (Vibrac, France) and Xylazine (Interchemie werken "De Adelaar" BV, Netherlands) mixture. The medial collateral ligament was transected, and the medial meniscus was grasped with a hemostat and reflected proximally toward the femur. The meniscus was transected and then skin was closed with sutures. 60–90 min after surgery rats were subcutaneously injected with flexoprofen (VIC GROUP, Russia). Treatment groups (20 rats each) were intragastrically treated with MT-SYK-03 (100 and 500 mg/kg) or vehicle control (0.5% methylcellulose solution) 24 h before OA induction and then once daily for 21 day. Active control group was subcutaneously injected with zoledronic acid (0.1 mg/kg) 24 h before OA induction and then once every three days for 21 day. After 21 day animals were sacrificed; surgically operated right knee was removed and used for image analysis.

[3] = system: Wistar rats, MIA osteoarthritis model; assay: Monosodium iodoacetate induced osteoarthritis in rats; type: in vivo, rat
Description: Monosodium iodoacetate (MIA) osteoarthritis model was performed at Pharmenterprises, Russia according to the known procedure[32] and approved by Ethics Committee of Pharmenterprises. Male 10 week old Wistar rats were divided into eight groups: negative control (#1), positive control (#2) and six treatment groups (#3–8), ten rats in each group. Group #1 was left intact while rats in groups #2–8 were anesthetized on the day 0 with intraperitoneal injection of Zoletil and Xylazine mixture and given a single intra-articular injection of MIA through the infrapatellar ligament of the right knee. Rats were treated as follows: (#1, #2) 0.5% solution of methylcellulose in PBS (pH = 3) as vehicle control, (#3, #5) 100 mg/kg MT-SYK-03, (#4, #6) 500 mg/kg MT-SYK-03, (#7) 50 mg/kg nalgesin and (#8) 0.1 mg/kg zoledronic acid. Rats in groups #1–4 received treatment intragastrically QD, 25 and 1 h before the MIA injection, and then daily until the end of the study on the day 28. Rats in groups #5–6 received treatment intragastrically QD from the day 7 until the end of the study. Rats in group #7 were treated QD starting on the day 14 and until the end of the study. Finally, rats in group #8 were treated subcutaneously immediately after the MIA injection and then every third day until the study end. Disease progression was monitored by measuring mechanical hyperalgesia, mechanical allodynia and grip strength of hind paws on the days 14, 21, and 28, just before the treatment, and 1, 3, 6 h after it.

[4] = Zoledronic acid 0.1 mg/kg, 0–28 days once three days, 14 day, 1 hour after admin.
[5] = Zoledronic acid 0.1 mg/kg, 0–28 days once three days, 14 day, 3 hours after admin.
[6] = Zoledronic acid 0.1 mg/kg, 0–28 days once three days, 21 day, 1 hour after admin.
[7] = Zoledronic acid 0.1 mg/kg, 0–28 days once three days, 21 day, 3 hours after admin.
[8] = Zoledronic acid 0.1 mg/kg, 0–28 days once three days, 28 day, 1 hour after admin.
[9] = Zoledronic acid 0.1 mg/kg, 0–28 days once three days, 28 day, 3 hours after admin.

Molecule O=C(O)Cc1ccccc1Nc1c(Cl)cccc1Cl [diclofenac, reference compound] has an Animal death ([1]; 14 days) of 0%, an Animal death ([1]; 18 days) of 0% and an Animal death ([1]; 21 days) of 10%. For the same molecule, the Animal death ([1]; 25 days) was 20%, the Animal death ([1]; 28 days) was 20% and the “The increase in the volume of the paws relative to the initial level” value ([1]; non-involved paws, 14 days) was 14.28±0.98& %. The “The increase in the volume of the paws relative to the initial level” value ([1]; non-involved paws, 18 days) was 22.01±2.42& %, the “The increase in the volume of the paws relative to the initial level” value ([1]; non-involved paws, 21 days) was 22.85±2.82& % and the “The increase in the volume of the paws relative to the initial level” value ([1]; non-involved paws, 25 days) was 19.99±2.76& %. For the same molecule, the “The increase in the volume of the paws relative to the initial level” value ([1]; non-involved paws, 28 days) was 20.8±3.06& %, the “Volume of non-involved paws” value ([1]; rat AIA, diclofenac, day 28) was “no statistically significant effect” and the Rats died ([1]; rat AIA, sodium diclofenac) was 20%. For the same molecule, the “The increase in the volume of the paws relative to the initial level” value ([1]; treated paws, 14 days) was 85.1 ± 8.01 & n = 10%, the “The increase in the volume of the paws relative to the initial level” value ([1]; treated paws, 18 days) was 90.16 ± 9.34 & n = 10% and the “The increase in the volume of the paws relative to the initial level” value ([1]; treated paws, 21 days) was 89.64 ± 9.99 & n = 9%. For the same molecule, the “The increase in the volume of the paws relative to the initial level” value ([1]; treated paws, 25 days) was 88.04 ± 12.52 &. n = 8% and the “The increase in the volume of the paws relative to the initial level” value ([1]; treated paws, 28 days) was 92.37 ± 13.78 & n=8%.

With O=P(O)(O)C(O)(Cn1ccnc1)P(=O)(O)O [zoledronic acid, reference compound] the Lesion area [2] was 25.3 ± 2.2^& %, the Lesion depth [2] was 50.5 ± 7.1% and the “hind paws grip strength” value [3, 4] was 60.4 ± 10.4 & % from the initial one. For the same molecule, the “mechanical allodynia pain threshold” value [3, 4] was 100.6±8 & % from the initial one, the mechanical hyperalgesia [3, 4] was 68.1 ± 6.3 & % from the initial one and the “hind paws grip strength” value [3, 5] was 75.4 ± 7.7 & % from the initial one. The “mechanical allodynia pain threshold” value [3, 5] was 101.3±12.3 & % from the initial one, the mechanical hyperalgesia [3, 5] was 68.3 ± 3.5 & % from the initial one and the “hind paws grip strength” value [3, 6] was 96 ± 6.8 % from the initial one. For the same molecule, the “mechanical allodynia pain threshold” value [3, 6] was 108.2±7.9 & % from the initial one, the mechanical hyperalgesia [3, 6] was 85.6 ± 5.6 % from the initial one and the “hind paws grip strength” value [3, 7] was 84.3 ± 7.5 % from the initial one. For the same molecule, the “mechanical allodynia pain threshold” value [3, 7] was 106.8±6.5 & % from the initial one, the mechanical hyperalgesia [3, 7] was 83.4 ± 5.2 % from the initial one and the “hind paws grip strength” value [3, 8] was 92.8 ± 7.6 % from the initial one. The “mechanical allodynia pain threshold” value [3, 8] was 112.4±8.6 & % from the initial one, the mechanical hyperalgesia [3, 8] was 81.8 ± 3.7 & % from the initial one and the “hind paws grip strength” value [3, 9] was 93.9 ± 15.5 % from the initial one. The “mechanical allodynia pain threshold” value [3, 9] was 126.6±15.4 & % from the initial one, the mechanical hyperalgesia [3, 9] was 84.2 ± 7.4 % from the initial one and the “hind paws grip strength” value ([3]; rat MIA, days 14, 21, 28) was “stable statistically significant improvements, but only on day 28”. For the same molecule, the “Mechanical hyperalgesia pain threshold” value ([3]; rat MIA, reference drugs) was “positive effects, but they were statistically significant only on days 21 and 28” and the “mechanical allodynia pain threshold” value ([3]; rat MIA, reference drugs) was “increased the pain threshold”.
